Literature values, collected in patent publication US20230372318A1, “METHODS FOR TREATING A SUBJECT HAVING MULTIPLE SYSTEM ATROPHY” (Theravance Biopharma R&D IP, LLC, priority 2022, published 2023).
Read-outs that look alike come from different tables or passages of the source.

Legend:
[1] = tested on: adult patients with symptomatic nOH; conditions: prescribing information, black box warning; cited from earlier work
[2] = tested on: nOH in MSA patients and non-MSA patients; conditions: cited from earlier work
[3] = tested on: patients with central autonomic failure; conditions: cited from earlier work

## N[C@H](C(=O)O)[C@H](O)c1ccc(O)c(O)c1 [droxidopa, L-threo-3-4-dihydroxyphenylserine]
[1]
  Main side effect: supine hypertension

## CNCC[C@@H](Oc1ccccc1C)c1ccccc1 [Atomoxetine]
[2]; MSA patients
  Effect against nOH: ineffective
[2]; non-MSA patients
  Effect against nOH: showing improvement
[3]
  Effect on blood pressure: increase blood pressure
